Measurements reported in patent US20250270251A1, “PROCESS FOR THE PREPARATION OF […] HAVING A DEFINITE PARTICLE SIZE DISTRIBUTION AND A IRREGULAR HEXAGON PLATES CRYSTAL HABIT” (F.I.S. - FABBRICA ITALIANA SINTETICI S.P.A., priority 2020, published 2025).

Key:
Assay type in all cases: physicochemical
[1] = Microscopy analysis (SEM) for identification of crystal habit and size; conditions: crystallized with a C2-C5 alkyl alcohol, examples 2 to 9
Protocol: The mean square weight means is determined by chord-length distribution analysis of Trenbolone Acetate of formula (I), in particular, was through by scanning electron microscopy (SEM).
Microscopy analysis: the solid of Trenbolone Acetate (I) was analysed by microscopy for identification of crystal habits.
Microscope was recorded with a Zeiss Evo MA10 scanning electron microscope. A sample of powder has been gold spattered and observed by SEM at different magnification, micrographs have been collected at same conditions and magnification (20 kV, HDBSD, Variable Pressure). All the samples have been observed after same treatment and same time after preparation.

[2] = Particle size distribution (PSD) with a Malvern Mastersizer 3000
Protocol: Particle size distribution (PSD): In particular, particle size distribution was determined with a Malvern Mastersizer 3000, and the other parameters used are reported in table below: […]

[3] = DSC comparative study of crystal habits; conditions: irregular hexagon plates versus non-irregular hexagon plates crystals; from DSC onset and peak
Protocol: DSC analysis was recorded with a Mettler DSC822e. A sample of compound was charged into a 40 μL aluminium crucible with a pinhole lid and was heated, under nitrogen (50 mL/min), at 10° C./min from 30 to 300° C.
DSC testing was performed in a sealed medium pressure stainless steel crucible. All the testing was performed by heating the sample from 30° C. at a rate of 10° C./minute up to a maximum temperature of 300° C.

[4] = Example 12, crystallization from isopropanol, seed D10 4-12, D50 12-29, D90 <76 μm
[5] = Example 13, recrystallization from IPA, seed D10 2-5, D50 10-20, D90 25-51 μm

With `CC(=O)O[C@H]1CC[C@H]2[C@@H]3CCC4=CC(=O)CCC4=C3C=C[C@]12C` [Compound (I), 17beta-acetoxy-estra-4,9,11-triene-3-one] the “size range of thin irregular hexagon plates” value [1] was 20-200 micron, the “PSD D50” value ([2]; Example 2, crystallization from isopropanol, seeded at 20-25 °C) was 67-130 μm and the “PSD D10” value [2, 4] was 15-40 μm. For the same compound, the “PSD D50” value [2, 4] was 67-130 μm, the “PSD D90” value [2, 4] was 350 μm and the “PSD D10” value [2, 5] was 15-40 μm. For the same compound, the “PSD D50” value [2, 5] was 67-130 μm, the “PSD D90” value [2, 5] was 300 μm and the “thermodynamic stability of the crystal habit” value [3] was “thermodynamically more stable”.
